Test results taken from patent US4582820A, “Orally administered biologically active peptides and proteins” (Research Corporation, priority 1982, dated 1986).
Where “and” joins values, the source holds several entries; their conditions need not be identical. Identical values can stand only once. Like-named read-outs stand apart in the source and are kept apart here.

Tests used:
Mice = details: cited from earlier work; for LD50: Mice
[1] = tested on: diabetic (streptozotocin-treated) rats; experiment: Intravenous administration in diabetic rats, plasma glucose; type: in vivo; details: for % Initial plasma glucose conc. / Actual plasma glucose: iv 0.5 μ/kg
Experimental: (§1) The term "diabetic rat" in the following tests refers to rats having been treated with streptozoticin by intravenous injection at a dosage of 75 mg/kg at least 4 days prior to the experiments in question. All rats used in the experiments had been fasting 12-18 hours prior to the experiments. Blood samples were taken at appropriate intervals as disclosed in the tables from a vein cannula which was implanted in a jugular vein. During the experiments, rats were awake, were able to move freely and had access to water (but no food). Plasma glucose was measured on a Beckman Glucose Analyzer 2 employing the enzymatic reaction of β-D-glucose with oxygen and measuring oxygen consumption rather than hydrogen peroxide formation.
A. Intravenous (iv) Administration of Regular and Modified Insulin in Diabetic Rats
From 15 min to 45 min after iv administration, the induced hypoglycemic effect was more pronounced in regular-insulin-treated aminals.

[2] = tested on: diabetic (streptozotocin-treated) rats; experiment: Oral administration in diabetic rats, plasma glucose; type: in vivo, rat; details: for Glucose / Glucose Level (% initial level): unmodified insulin oral 80 μ/kg
Experimental: as §1
B. Oral Administration of Regular and Modified Insulin (at 80μ/kg) in Normal and Diabetic Rats.
The three controls were regular insulin, a carrier complex of SDS:TEA, and a complex of albumin:SDS:TEA in the same weight ratio as than in the insulin complex; i.e., albumin:SDS:TEA=5:7.5:3.6.
The results of oral administrations of modified insulin and carrier complex (SDS:TEA=1:1 by mole) in the amount equivalent to that in the sandwich complex of insulin calculated based on 80μof insulin per kg of rat in normal rats are shown in Tables 3 and 4. The results of oral administrations of modified insulin, regular insulin, carrier complex and the sandwich complex of albumin (albumin:SDS:TEA in a weight ratio of 5:7.5:3.6) in diabetic rats are shown in Tables 5, 6, 7 and 8 respectively.

[3] = diabetic rats, 15 min, mean ± SD
[4] = diabetic rats, 15 min, single rats
[5] = diabetic rats, 30 min, mean ± SD
[6] = diabetic rats, 30 min, single rats
[7] = diabetic rats, 45 min, mean ± SD
[8] = diabetic rats, 45 min, single rats
[9] = diabetic rats, 60 min, mean ± SD
[10] = diabetic rats, 60 min, single rats
[11] = diabetic rats, 90 min, mean ± SD
[12] = diabetic rats, 90 min, single rats
[13] = diabetic rats, 120 min, mean ± SD
[14] = diabetic rats, 120 min, single rats
[15] = diabetic rats, 180 min, mean ± SD
[16] = diabetic rats, 180 min, single rats
[17] = diabetic rats, 300 min, mean ± SD
[18] = diabetic rats, 300 min, single rats

Molecule: Cn1ccnc1 [1-methylimidazole]
- LD50 (Mice; ipr.): 380 mg/kg
- toxicity (in words) (Mice; mouse, in vivo): very slight
- LD50 (Mice; oral): 1500 mg/kg

Molecule: Insulin: Insulin (bovine pancreas, crystalline; 25.5 μ/mg; Sigma)
- % Initial plasma glucose conc. [1, 3]: 63.8%
- Actual plasma glucose [1, 3]: 239 mg %
- % Initial plasma glucose conc. [1, 4]: 46.1% and 63.8% and 57.7% and 84.5% and 47.9% and 82.5%
- Actual plasma glucose [1, 4]: 197 mg % and 176 mg % and 214 mg % and 359 mg % and 113 mg % and 372 mg %
- % Initial plasma glucose conc. [1, 5]: 50.0%
- Actual plasma glucose [1, 5]: 185 mg %
- % Initial plasma glucose conc. [1, 6]: 43.9% and 53.6% and 16.2% and 69.7% and 36.9% and 79.4%
- Actual plasma glucose [1, 6]: 358 mg % and 159 mg % and 148 mg % and 60 mg % and 296 mg % and 87 mg %
- % Initial plasma glucose conc. [1, 7]: 48.3%
- Actual plasma glucose [1, 7]: 169 mg %
- % Initial plasma glucose conc. [1, 8]: 36.5% and 59.1% and 31.0% and 56.2% and 41.5% and 65.3%
- Actual plasma glucose [1, 8]: 296 mg % and 132 mg % and 163 mg % and 84 mg % and 239 mg % and 98 mg %
- % Initial plasma glucose conc. [1, 9]: 49.2 ± 15.4%
- Actual plasma glucose [1, 9]: 176 ± 83 mg %
- % Initial plasma glucose conc. [1, 10]: 38.4% and 57.6% and 27.2% and 51.8% and 48.3% and 71.6%
- Actual plasma glucose [1, 10]: 323 mg % and 139 mg % and 159 mg % and 101 mg % and 220 mg % and 114 mg %
- % Initial plasma glucose conc. [1, 11]: 53.0 ± 9%
- Actual plasma glucose [1, 11]: 190 ± 69 mg %
- % Initial plasma glucose conc. [1, 12]: 45.4% and 53.6% and 50.4% and 46.1% and 51.7% and 70.7%
- Actual plasma glucose [1, 12]: 319 mg % and 168 mg % and 148 mg % and 187 mg % and 196 mg % and 122 mg %
- % Initial plasma glucose conc. [1, 13]: 50.1 ± 10.1%
- Actual plasma glucose [1, 13]: 177 ± 32 mg %
- % Initial plasma glucose conc. [1, 14]: 42.3% and 58.0% and 56.9% and 35.1% and 60.6% and 47.8%
- Actual plasma glucose [1, 14]: 215 mg % and 153 mg % and 160 mg % and 211 mg % and 149 mg % and 143 mg %
- % Initial plasma glucose conc. [1, 15]: 57.8%
- Actual plasma glucose [1, 15]: 196 mg %
- % Initial plasma glucose conc. [1, 16]: 58.8% and 59.8% and 76.3% and 37.9% and 67.8% and 45.9%
- Actual plasma glucose [1, 16]: 207 mg % and 213 mg % and 165 mg % and 283 mg % and 161 mg % and 160 mg %
- % Initial plasma glucose conc. [1, 17]: 65.7%
- Actual plasma glucose [1, 17]: 225 mg %
- % Initial plasma glucose conc. [1, 18]: 60.8% and 58.1% and 89.2% and 46.6% and 90.7% and 48.6%
- Actual plasma glucose [1, 18]: 219 mg % and 220 mg % and 167 mg % and 331 mg % and 198 mg % and 214 mg %
- hypoglycemic effect (in words), rat #285 ([1]; iv administration, diabetic rat #285 treated with both agents): progressive hypoglycemic effect
- hypoglycemic effect (in words) ([1]; iv administration, diabetic rats): progressive, systemic, hypoglycemic effects for five hours in all animals
- systemic hypoglycemic effect (in words) ([2]; oral administration): does not result in a systemic, hypoglycemic effect
- Glucose ([2]; 15 min, Mean ± Std. Dev.): 273 ± 112 mg/100 ml
- Glucose Level (% initial level) ([2]; 15 min, Mean ± Std. Dev.): 134 ± 20%
- Glucose ([2]; 15 min, single rats): 145 mg/100 ml and 371 mg/100 ml and 214 mg/100 ml and 363 mg/100 ml
- Glucose Level (% initial level) ([2]; 15 min, single rats): 119% and 155.2% and 146.6% and 115%
- Glucose ([2]; 30 min, Mean ± Std. Dev.): 325 ± 28 mg/100 ml
- Glucose Level (% initial level) ([2]; 30 min, Mean ± Std. Dev.): 104.7 ± 19.8%
- Glucose ([2]; 30 min, single rats): 293 mg/100 ml and 343 mg/100 ml and 340 mg/100 ml
- Glucose Level (% initial level) ([2]; 30 min, single rats): 122.6% and 107.9% and 83.5%
- Glucose ([2]; 45 min, Mean ± Std. Dev.): 327 ± 82 mg/100 ml
- Glucose Level (% initial level) ([2]; 45 min, Mean ± Std. Dev.): 105.6 ± 31.2%
- Glucose ([2]; 45 min, single rats): 270 mg/100 ml and 421 mg/100 ml and 290 mg/100 ml
- Glucose Level (% initial level) ([2]; 45 min, single rats): 113.0% and 132.4% and 71.3%
- Glucose ([2]; 60 min, Mean ± Std. Dev.): 285 ± 87 mg/100 ml
- Glucose Level (% initial level) ([2]; 60 min, Mean ± Std. Dev.): 124.1 ± 57.9%
- Glucose ([2]; 60 min, single rats): 152 mg/100 ml and 309 mg/100 ml and 272 mg/100 ml and 329 mg/100 ml and 410 mg/100 ml and 239 mg/100 ml
- Glucose Level (% initial level) ([2]; 60 min, single rats): 124.6% and 129.3% and 77.5% and 225.3% and 128.9% and 58.7%
- Glucose ([2]; 120 min, Mean ± Std. Dev.): 270 ± 118 mg/100 ml
- Glucose Level (% initial level) ([2]; 120 min, Mean ± Std. Dev.): 121.4 ± 79.4%
- Glucose ([2]; 120 min, single rats): 122 mg/100 ml and 288 mg/100 ml and 251 mg/100 ml and 392 mg/100 ml and 411 mg/100 ml and 157 mg/100 ml
- Glucose Level (% initial level) ([2]; 120 min, single rats): 100% and 120.5% and 71.5% and 268.5% and 129.2% and 38.6%
- Glucose ([2]; 180 min, Mean ± Std. Dev.): 331 ± 127 mg/100 ml
- Glucose Level (% initial level) ([2]; 180 min, Mean ± Std. Dev.): 123.3 ± 76.1%
- Glucose ([2]; 180 min, single rats): 296 mg/100 ml and 226 mg/100 ml and 502 mg/100 ml and 422 mg/100 ml and 211 mg/100 ml
- Glucose Level (% initial level) ([2]; 180 min, single rats): 123.9% and 64.5% and 243.8% and 132.7% and 51.8%
- Glucose ([2]; 300 min, Mean ± Std. Dev.): 282 mg/100 ml
- Glucose Level (% initial level) ([2]; 300 min, Mean ± Std. Dev.): 116.1 ± 75.0%
- Glucose ([2]; 300 min, single rats): 290 mg/100 ml and 189 mg/100 ml and 342 mg/100 ml and 391 mg/100 ml and 196 mg/100 ml
- Glucose Level (% initial level) ([2]; 300 min, single rats): 121.3% and 53.8% and 234.2% and 123.0% and 48.2%
